In publication PMC4104029, “Mechanism of Action of Compound-13: An α1-Selective Small Molecule Activator of AMPK” (Chemistry & Biology, 2014):

Experiments:
mouse hepatocytes = experiment: Adenine nucleotide ratios by capillary electrophoresis; format: cell-based; conditions: 1 hr; C13 up to 100 μM
Protocol: Figure 4 The C2 Prodrug, C13, Potently Activates AMPK in Mouse Primary Hepatocytes (A) Isolated mouse hepatocytes were incubated with vehicle or the indicated concentrations of C13 for 1 hr. AICAR (0.5 mM) was included as a positive control. Cell lysates were analyzed using western blotting with the indicated antibodies. (B) AMPKα1 or AMPKα2 complexes were immunoprecipitated from hepatocyte extracts prepared as described in (A) and assayed for kinase activity using 0.2 mM AMARA and 0.1 mM ATP. Results are expressed as the mean Pi incorporated in picomoles per minute-milligram ± SD. (C) Hepatocytes were stimulated with 30 μM C13 for the indicated times prior to harvesting, with AICAR (0.5 mM, 1 hr) as positive control. Lysates were analyzed using western blotting with the indicated antibodies. (D) Mouse hepatocytes were treated with the indicated compounds for 1 hr, and adenine nucleotide ratios were determined using capillary electrophoresis of perchloric acid extracts. (E) Mouse hepatocytes were preincubated with 30 μM STO-609 for 30 min prior to stimulation with 30 μM C13 for 1 hr or with 1 μM ionomycin for 30 min. Lysates were analyzed using western blotting with the indicated antibodies. (F) Wild-type (LKB1^+/+) or LKB1-null (LKB1^−/−) mouse embryonic fibroblasts were incubated with the indicated concentrations of C13 for 1 hr. AICAR (2 mM) was included as a positive control. Lysates were analyzed using western blotting with the indicated antibodies. Results are representative of three independent experiments. […]
Isolation of primary hepatocytes. Hepatocytes were isolated from fasted mice by collagenase digestion (Berry and Friend, 1969). Cells were seeded in M199 containing 100 U/ml penicillin G, 100 µg/ml streptomycin, 0.1 % (w/v) BSA, 10 % (v/v) FBS, 10 nM insulin, 200 nM triiodothyronine and 100 nM dexamethasone. […]
Nucleotide measurements. […] Nucleotides were separated and quantified by capillary electrophoresis using a Beckman P/ACE instrument as previously described (Hawley, et al., 2010).

[1] = target: T1, AMPKα1β1γ2 with β1 Δ1–185 (ΔCBD) (Homo sapiens, UniProt Q13131+Q9UGJ0); experiment: AMPKα1β1γ2 mutagenesis, activation assay; format: biochemical; conditions: 1 μM C2; complex purified from COS1 cells
T1 construct: made in house; host or cells: COS1 cells (transient transfection, FLAG-M2 purification)
T1 sequence (Q13131 whole entry, stated change not applied): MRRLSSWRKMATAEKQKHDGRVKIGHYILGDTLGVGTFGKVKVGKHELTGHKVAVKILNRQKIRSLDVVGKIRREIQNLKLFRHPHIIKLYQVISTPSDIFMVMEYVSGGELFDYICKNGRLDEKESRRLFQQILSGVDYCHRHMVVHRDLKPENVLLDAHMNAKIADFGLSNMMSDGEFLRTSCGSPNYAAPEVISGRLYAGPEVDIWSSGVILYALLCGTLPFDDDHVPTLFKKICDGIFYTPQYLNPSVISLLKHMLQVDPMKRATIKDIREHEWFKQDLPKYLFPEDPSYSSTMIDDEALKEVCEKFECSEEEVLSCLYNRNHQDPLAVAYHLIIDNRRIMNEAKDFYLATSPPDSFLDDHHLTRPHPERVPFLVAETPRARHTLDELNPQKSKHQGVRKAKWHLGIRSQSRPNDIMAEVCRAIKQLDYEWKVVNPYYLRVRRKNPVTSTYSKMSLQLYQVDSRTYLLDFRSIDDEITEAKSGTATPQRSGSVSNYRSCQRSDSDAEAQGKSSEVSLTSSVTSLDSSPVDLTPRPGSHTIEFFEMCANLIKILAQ
T1 sequence (Q9Y478 186-270 partner): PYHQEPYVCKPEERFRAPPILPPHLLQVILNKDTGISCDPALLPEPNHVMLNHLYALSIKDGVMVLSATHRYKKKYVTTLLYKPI
T1 sequence (Q9UGJ0 whole entry, stated change not applied): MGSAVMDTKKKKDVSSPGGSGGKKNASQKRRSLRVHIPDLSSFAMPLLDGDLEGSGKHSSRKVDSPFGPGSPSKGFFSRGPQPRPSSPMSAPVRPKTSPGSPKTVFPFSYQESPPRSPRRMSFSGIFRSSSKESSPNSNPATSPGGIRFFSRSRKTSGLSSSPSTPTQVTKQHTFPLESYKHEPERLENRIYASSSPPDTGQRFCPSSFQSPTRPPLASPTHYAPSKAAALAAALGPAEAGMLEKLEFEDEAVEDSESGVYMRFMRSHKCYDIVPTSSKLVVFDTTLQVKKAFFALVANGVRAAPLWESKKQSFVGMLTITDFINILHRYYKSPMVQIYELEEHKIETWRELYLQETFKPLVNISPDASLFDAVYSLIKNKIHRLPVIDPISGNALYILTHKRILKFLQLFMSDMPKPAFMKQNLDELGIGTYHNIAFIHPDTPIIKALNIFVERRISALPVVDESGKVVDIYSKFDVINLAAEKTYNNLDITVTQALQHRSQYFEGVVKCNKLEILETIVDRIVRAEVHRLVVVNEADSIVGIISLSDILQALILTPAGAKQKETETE
Protocol: (§1) Figure 2 C2 Is a Partial Agonist of α2 Complexes and Selectively Protects α1 Complexes against Dephosphorylation by PP2C (A and B) Recombinant AMPKα1β1γ1 (A) or AMPKα2β1γ1 (B) was assayed in the presence of AMP (30 μM) and increasing concentrations of C2 (0–20 μM). Results are expressed as fold increase in activity relative to controls without ligand and represent the mean ± SD for three independent experiments. (C and D) The effects of C2 and AMP on dephosphorylation and inactivation of AMPKα1β1γ1 (C) and α2β1γ1 (D) by PP2Cα (present in all assay conditions). Results are expressed as a percentage of control reactions performed in the absence of Mg^2+ and represent the mean ± SD of three independent experiments. Representative blots of pT172 and total AMPKα are shown below the bar charts. […] Results are expressed as the fold increase in activity relative to controls in the absence of compound and represent the mean ± SD for three independent experiments. […]
(§2) Competitive elution of AMPKγ2 from ATP-Sepharose. […] Resin was pelleted at low speed and the resulting supernatant analysed for the presence of AMPKγ2 by SDS-PAGE and staining with colloidal Coomassie (Generon). […]

AMPKα1β1γ2 with γ2 R531G = target: T2, AMPKα1β1γ2 with γ2 R531G (Homo sapiens, UniProt Q13131+Q9UGJ0, R531G); experiment: AMPKα1β1γ2 mutagenesis, activation assay; format: biochemical; conditions: 1 μM C2; complex purified from COS1 cells
T2 construct: made in house; host or cells: COS1 cells (transient transfection, FLAG-M2 purification)
T2 sequence (Q13131 whole entry): as the sequence (Q13131 whole entry, stated change not applied) above
T2 sequence (Q9Y478 whole entry partner): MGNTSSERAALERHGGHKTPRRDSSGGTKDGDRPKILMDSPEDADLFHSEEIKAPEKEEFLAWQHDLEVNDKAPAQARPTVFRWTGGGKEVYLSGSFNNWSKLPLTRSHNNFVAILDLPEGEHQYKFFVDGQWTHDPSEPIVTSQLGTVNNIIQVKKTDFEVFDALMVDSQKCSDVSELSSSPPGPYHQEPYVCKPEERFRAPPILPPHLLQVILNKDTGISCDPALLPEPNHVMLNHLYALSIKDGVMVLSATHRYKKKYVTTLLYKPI
T2 sequence (Q9UGJ0 whole entry R531G): as the sequence (Q9UGJ0 whole entry, stated change not applied) above, with R531G counted along it
Protocol: as §1, §2

CC(C)C(=O)OCOP(=O)(OCOC(=O)C(C)C)c1ccc(C2=NOC(=O)C2)o1 [Compound C13]
ADP:ATP and AMP:ATP ratios (mouse hepatocytes): no detectable changes

O=P(O)(O)c1ccc(-c2cc(O)on2)o1 [Compound C2, 5-(5-hydroxyl-isoxazol-3-yl)-furan-2-phosphonic acid]
activation of mutant complex [1]: unaffected | stimulation of mutant complex (AMPKα1β1γ2 with γ2 R531G): failed to stimulate
